Results: publication PMC7795354, “Development of Radiogallium-Labeled Peptides for Platelet-Derived Growth Factor Receptor β (PDGFRβ) Imaging: Influence of Different Linkers” (Molecules, 2020)
Several values for one entry are separate records, joined by “and”; a condition that tells them apart may be missing. Identical values can stand only once. Like-named read-outs stand apart in the source and are kept apart here. Values belong to the compound of their own block, whether it stands above or below them. *1 amine or outer side, *2 acyl side, *3 side chain or, on linkers, in order; H or OH if unused. Where a SMILES comes first, the peptide text is derived from it. Where no end group is shown, it is not given here. [ ]: non-standard residue; d: D form. The star is where a group is joined. DOTA = O=C(O)CN1CCN(CC(=O)O)CCN(CC(=O)*)CCN(CC(=O)O)CC1; NH(CH2CH2O)4CH2CO = O=C(COCCOCCOCCOCCN[*:1])[*:2]; βAla = NCCC(=O)O

What was measured:
[1] = mouse, 1 h
Protocol: (§3) Briefly, the solution of radiotracers (37 kBq/well, 50 µL) in a sealed tube containing 0.1 M PBS pH 7.4 (450 µL) was incubated at 37 °C for 24 h. At 3 and 24 h after incubation, the purity of radiotracers was analyzed by RP-HPLC. Meanwhile, for stability assay in murine plasma, radiotracers were mixed in murine plasma at a ratio of 1:10. After incubation at 37 °C for 10 min and 1 h, an equivalent amount of ice-cold acetonitrile was added. After centrifugation at 1000× g at 4 °C for 10 min, the supernatant was filtered through a 0.45-µm filter followed by analyzing using RP-HPLC as described above. Then, the radiochemical purities were determined.

[2] = physchem; conditions: pH 7.4
Protocol: (§4) The octanol-water partition coefficients for radiotracers were determined via the assessment of their distribution in n-octanol and PBS (pH 7.4) using shake-flask method as described previously [48]. Radioactivity of each layer was measured using auto well gamma counter (n = 4).

[3] = buffer
Protocol: as §3

[4] = in vitro; conditions: mouse, plasma, In vitro stability in murine plasma, percentage of remained intact radiotracer
Protocol: as §3

[5] = Octanol-water partition coefficient (log P), shake-flask; conditions: n-octanol/PBS, pH 7.4
Protocol: as §4

[6] = In vitro stability in PBS pH 7.4; conditions: 37 °C, 0.1 M PBS pH 7.4
Protocol: as §3

[7] = In vitro stability in murine plasma; conditions: 37 °C
Protocol: as §3

[8] = Biodistribution in BxPC3-luc tumor-bearing mice; type: in vivo, BALB/c nu/nu mice; conditions: female, BALB/c nu/nu, mouse, iv, 74 kBq, total radioactivity, 1 h post-injection; for tissue uptake at 1 h: i.v.
Protocol: (§1) All animal handling procedures were approved by the Kanazawa University Animal Care Committee. Experiments with animals were conducted in accordance with the Guidelines for the Care and Use of Laboratory Animals of Kanazawa University. The animals were housed with free access to food and water at 23 °C with a 12 h light/dark schedule. Four-week-old female BALB/c nu/nu mice (12–17 g) were purchased from Japan SLC Inc. (Hamamatsu, Japan). The tumor-bearing model was prepared by subcutaneous inoculation of 1 × 10^7 BxPC3-luc cells into left shoulder of female BALB/c nu/nu mice. The biodistribution experiment was performed approximately 4–5 weeks post-inoculation.
(§2) A saline solution of [^67Ga]27 or [^67Ga]28 (74 kBq, 100 µL) was injected intravenously into the tail vein of the mice. The mice were sacrificed at 10 min post-injection for [^67Ga]27 and 1 h post-injection for [^67Ga]27 or [^67Ga]28. For in vivo blocking studies, 100 μL of a mixed saline solution of [^67Ga]27 (74 kBq) and IPLPPPRRPFFK peptide (1 mg/mouse) was injected via tile vein into the tumor-bearing mice. The mice were sacrificed at 1 h post-injection. Tissues of interest were removed and weighed. The radioactivity of the tissues was determined using an auto well gamma counter, and counts were corrected for background radiation and physical decay during counting. The data were expressed as percent injected dose per gram tissue (%ID/g).

[9] = tested on: BxPC3-luc tumor-bearing mice; assay: Biodistribution in BxPC3-luc tumor-bearing mice; type: in vivo, BALB/c nu/nu mice; conditions: 1 h post-injection, i.v.
Protocol: as §1, §2

[10] = Biodistribution in BxPC3-luc tumor-bearing mice; type: in vivo; conditions: female, BALB/c nu/nu, mouse, stomach, iv, 74 kBq, total radioactivity; 1 h post-injection
[11] = tested on: PDGFRβ; conditions: cited from earlier work
[12] = mouse, plasma, In vitro stability in murine plasma, percentage of remained intact radiotracer, 1 h

Compound: CC[C@H](C)[C@H](NC(=O)COCCOCCOCCOCCNC(=O)CN1CCN(CC(=O)O)CCN(CC(=O)O)CCN(CC(=O)O)CC1)C(=O)N1CCC[C@H]1C(=O)N[C@@H](CC(C)C)C(=O)N1CCC[C@H]1C(=O)N1CCC[C@H]1C(=O)N1CCC[C@H]1C(=O)N[C@@H](CCCNC(=N)N)C(=O)N[C@@H](CCCNC(=N)N)C(=O)N1CCC[C@H]1C(=O)N[C@@H](Cc1ccccc1)C(=O)N[C@@H](Cc1ccccc1)C(=O)N[C@@H](CCCCN)C(=O)O [[^67Ga]28, [^67Ga]Ga-DOTA-EG4-IPLPPPRRPFFK, metal not drawn] ({DOTA}-[NH(CH2CH2O)4CH2CO]IPLPPPRRPFFK-OH)
logP [5]: < -4 | In vitro stability in PBS pH 7.4, percentage of remained intact radiotracer ([6]; 3 h): 96.9 ± 0.2% | In vitro stability in PBS pH 7.4, percentage of remained intact radiotracer ([6]; 24 h): 94.3 ± 0.3% | tissue uptake at 1 h ([8]; blood, read-out: Biodistribution, Blood): 0.12 %ID/g | tissue uptake at 1 h ([8]; bone, read-out: Biodistribution, Bone): 0.1 %ID/g | tissue uptake at 1 h ([8]; heart, read-out: Biodistribution, Heart): 0.03 %ID/g | tissue uptake at 1 h ([8]; BxPC3-luc tumor, read-out: Biodistribution, Tumor): 0.25 %ID/g | tissue uptake at 1 h ([8]; kidney, read-out: Biodistribution, Kidney): 2.96 %ID/g | tissue uptake at 1 h ([8]; large intestine, read-out: Biodistribution, Large intestine): 0.11 %ID/g | tissue uptake at 1 h ([8]; liver, read-out: Biodistribution, Liver): 0.2 %ID/g | tissue uptake at 1 h ([8]; lung, read-out: Biodistribution, Lung): 0.18 %ID/g | tissue uptake at 1 h ([8]; muscle, read-out: Biodistribution, Muscle): 0.03 %ID/g | tissue uptake at 1 h ([8]; pancreas, read-out: Biodistribution, Pancreas): 0.07 %ID/g | tissue uptake at 1 h ([8]; small intestine, read-out: Biodistribution, Small intestine): 0.34 %ID/g | tissue uptake at 1 h ([8]; spleen, read-out: Biodistribution, Spleen): 0.07 %ID/g | tissue to tissue ratio at 1 h ([8]; tumor/blood): 2.05 | Biodistribution, Brain [9]: 0.00 (0.00) %injected dose/gram tissue | Tumor/Blood ratio [9]: 2.05 and 2.05 ± 0.77 | In vitro stability in murine plasma, percentage of remained intact radiotracer ([7]; 1 h, 60 min): 80.1 ± 0.8% | remaining at 10 min ([7]; mouse, plasma, In vitro stability in murine plasma, percentage of remained intact radiotracer, 10 min): 96.2 ± 1.1% | remaining at 1 h [7, 12]: > 75% | tissue uptake dose at 1 h [10]: 0.01 %ID

Compound: IPLPPPRRPFFK
IC50 ([11]; affinity for PDGFRβ): 480 nM

Compound: IPLPPPSRPFFK [PDGFR-P1, linear dodecapeptide targeting PDGFRβ identified by biopanning]
IC50 ([11]; targeting PDGFRβ): 1400 nM

Compound: yIPLPPPRRPFFK ([dY]IPLPPPRRPFFK) [yG2, … with tyrosine at the N-terminal for radioiodination]
Affinity for the PDGFRβ relative to IPLPPPSRPFFKY (PDGFR-P1) ([11]; higher affinity): 16 times

Results, then the compound that gave them:

In vitro stability in murine plasma, percentage of remained intact radiotracer [1]: 35.2 ± 1.7% | logP [2]: < -4 | In vitro stability in PBS pH 7.4, percentage of remained intact radiotracer ([3]; 3 h): 95.3 ± 2.7% | In vitro stability in PBS pH 7.4, percentage of remained intact radiotracer ([3]; 24 h): 94.1 ± 0.6% | remaining at 1 h [4]: 35%
Compound: CC[C@H](C)[C@H](NC(=O)CN1CCN(CC(=O)O)CCN(CC(=O)O)CCN(CC(=O)O)CC1)C(=O)N1CCC[C@H]1C(=O)N[C@@H](CC(C)C)C(=O)N1CCC[C@H]1C(=O)N1CCC[C@H]1C(=O)N1CCC[C@H]1C(=O)N[C@@H](CCCNC(=N)N)C(=O)N[C@@H](CCCNC(=N)N)C(=O)N1CCC[C@H]1C(=O)N[C@@H](Cc1ccccc1)C(=O)N[C@@H](Cc1ccccc1)C(=O)N[C@@H](CCCCN)C(=O)O [[^67Ga]22, [^67Ga]Ga-DOTA-IPLPPPRRPFFK, metal not drawn] ({DOTA}-IPLPPPRRPFFK-OH)

logP [5]: < -4 | In vitro stability in PBS pH 7.4, percentage of remained intact radiotracer ([6]; 3 h): 95.9 ± 0.7% | In vitro stability in PBS pH 7.4, percentage of remained intact radiotracer ([6]; 24 h): 94.0 ± 0.5% | remaining at 1 h [7, 12]: 15.7 ± 2.9%
Compound: CC[C@H](C)[C@H](NC(=O)[C@@H](C)NC(=O)[C@@H](C)NC(=O)[C@@H](C)NC(=O)CN1CCN(CC(=O)O)CCN(CC(=O)O)CCN(CC(=O)O)CC1)C(=O)N1CCC[C@H]1C(=O)N[C@@H](CC(C)C)C(=O)N1CCC[C@H]1C(=O)N1CCC[C@H]1C(=O)N1CCC[C@H]1C(=O)N[C@@H](CCCNC(=N)N)C(=O)N[C@@H](CCCNC(=N)N)C(=O)N1CCC[C@H]1C(=O)N[C@@H](Cc1ccccc1)C(=O)N[C@@H](Cc1ccccc1)C(=O)N[C@@H](CCCCN)C(=O)O [[^67Ga]23, [^67Ga]Ga-DOTA-aaa-IPLPPPRRPFFK, metal not drawn] ({DOTA}-[dA][dA][dA]IPLPPPRRPFFK-OH)

logP [5]: < -4 | In vitro stability in PBS pH 7.4, percentage of remained intact radiotracer ([6]; 3 h): 96.3 ± 1.1% | In vitro stability in PBS pH 7.4, percentage of remained intact radiotracer ([6]; 24 h): 94.0 ± 0.5% | remaining at 1 h [7, 12]: 41.4 ± 2.5%
Compound: CC[C@H](C)[C@H](NC(=O)[C@@H](C)NC(=O)[C@@H](C)NC(=O)[C@@H](C)NC(=O)[C@@H](C)NC(=O)[C@@H](C)NC(=O)CN1CCN(CC(=O)O)CCN(CC(=O)O)CCN(CC(=O)O)CC1)C(=O)N1CCC[C@H]1C(=O)N[C@@H](CC(C)C)C(=O)N1CCC[C@H]1C(=O)N1CCC[C@H]1C(=O)N1CCC[C@H]1C(=O)N[C@@H](CCCNC(=N)N)C(=O)N[C@@H](CCCNC(=N)N)C(=O)N1CCC[C@H]1C(=O)N[C@@H](Cc1ccccc1)C(=O)N[C@@H](Cc1ccccc1)C(=O)N[C@@H](CCCCN)C(=O)O [[^67Ga]24, [^67Ga]Ga-DOTA-aaaaa-IPLPPPRRPFFK, metal not drawn] ({DOTA}-[dA][dA][dA][dA][dA]IPLPPPRRPFFK-OH)

logP [5]: < -4 | In vitro stability in PBS pH 7.4, percentage of remained intact radiotracer ([6]; 3 h): 94.2 ± 1.7% | In vitro stability in PBS pH 7.4, percentage of remained intact radiotracer ([6]; 24 h): 93.0 ± 0.4% | remaining at 1 h [7, 12]: 26.2 ± 6.7%
Compound: CC[C@H](C)[C@H](NC(=O)CCNC(=O)CCNC(=O)CN1CCN(CC(=O)O)CCN(CC(=O)O)CCN(CC(=O)O)CC1)C(=O)N1CCC[C@H]1C(=O)N[C@@H](CC(C)C)C(=O)N1CCC[C@H]1C(=O)N1CCC[C@H]1C(=O)N1CCC[C@H]1C(=O)N[C@@H](CCCNC(=N)N)C(=O)N[C@@H](CCCNC(=N)N)C(=O)N1CCC[C@H]1C(=O)N[C@@H](Cc1ccccc1)C(=O)N[C@@H](Cc1ccccc1)C(=O)N[C@@H](CCCCN)C(=O)O [[^67Ga]25, [^67Ga]Ga-DOTA-ββ-IPLPPPRRPFFK, metal not drawn] ({DOTA-βAla-βAla}-IPLPPPRRPFFK-OH)

logP [5]: < -4 | In vitro stability in PBS pH 7.4, percentage of remained intact radiotracer ([6]; 3 h): 96.9 ± 0.3% | In vitro stability in PBS pH 7.4, percentage of remained intact radiotracer ([6]; 24 h): 95.4 ± 0.2% | remaining at 1 h [7, 12]: 33.1 ± 5.7%
Compound: CC[C@H](C)[C@H](NC(=O)CCNC(=O)CCNC(=O)CCNC(=O)CCNC(=O)CN1CCN(CC(=O)O)CCN(CC(=O)O)CCN(CC(=O)O)CC1)C(=O)N1CCC[C@H]1C(=O)N[C@@H](CC(C)C)C(=O)N1CCC[C@H]1C(=O)N1CCC[C@H]1C(=O)N1CCC[C@H]1C(=O)N[C@@H](CCCNC(=N)N)C(=O)N[C@@H](CCCNC(=N)N)C(=O)N1CCC[C@H]1C(=O)N[C@@H](Cc1ccccc1)C(=O)N[C@@H](Cc1ccccc1)C(=O)N[C@@H](CCCCN)C(=O)O [[^67Ga]26, [^67Ga]Ga-DOTA-ββββ-IPLPPPRRPFFK, metal not drawn] ({DOTA-βAla-βAla-βAla-βAla}-IPLPPPRRPFFK-OH)
